# Assay results: ChEMBL document CHEMBL5038625, “Application of the dual-tail approach for the design and synthesis of novel Thiopyrimidine-Benzenesulfonamide hybrids as selective carbonic anhydrase inhibitors” (Eur J Med Chem, 2022)
# What was measured:
# [1] = test system: SNB-75; experiment: Antiproliferative activity against human SNB-75 cells assessed as cell growth inhibition at 10 uM incubated for 24 hrs by sulforhodamine B assay; assay type: functional; details: read-out: GI
# [2] = test system: LOX IMVI; experiment: Antiproliferative activity against human LOX IMVI cells assessed as cell growth inhibition at 10 uM incubated for 24 hrs by sulforhodamine B assay; assay type: functional; details: read-out: GI
# [3] = test system: MOLT-4; experiment: Antiproliferative activity against human MOLT-4 cells assessed as cell growth inhibition at 10 uM incubated for 24 hrs by sulforhodamine B assay; assay type: functional; details: read-out: GI
# [4] = target: Carbonic anhydrase 9 (Homo sapiens, UniProt Q16790); experiment: Inhibition of human CA9 preincubated for 15 mins by phenol red dye based stopped flow CO2 hydration assay
# [5] = test system: CCRF-CEM; experiment: Antiproliferative activity against human CCRF-CEM cells assessed as cell growth inhibition at 10 uM incubated for 24 hrs by sulforhodamine B assay; assay type: functional; details: read-out: GI
# [6] = test system: HL-60; experiment: Antiproliferative activity against human HL-60 cells assessed as cell growth inhibition at 10 uM incubated for 24 hrs by sulforhodamine B assay; assay type: functional; details: read-out: GI
# [7] = test system: CAKI-1; experiment: Antiproliferative activity against human CAKI-1 cells assessed as cell growth inhibition at 10 uM incubated for 24 hrs by sulforhodamine B assay; assay type: functional; details: read-out: GI
# [8] = test system: SR; experiment: Antiproliferative activity against human SR cells assessed as cell growth inhibition at 10 uM incubated for 24 hrs by sulforhodamine B assay; assay type: functional; details: read-out: GI
# [9] = test system: A498; experiment: Antiproliferative activity against human A498 cells assessed as cell growth inhibition at 10 uM incubated for 24 hrs by sulforhodamine B assay; assay type: functional; details: read-out: GI
# [10] = test system: K562; experiment: Antiproliferative activity against human K562 cells assessed as cell growth inhibition at 10 uM incubated for 24 hrs by sulforhodamine B assay; assay type: functional; details: read-out: GI
# [11] = test system: SW-620; experiment: Antiproliferative activity against human SW-620 cells assessed as cell growth inhibition at 10 uM incubated for 24 hrs by sulforhodamine B assay; assay type: functional; details: read-out: GI
# [12] = target: Carbonic anhydrase 2 (Homo sapiens, UniProt P00918); experiment: Inhibition of human CA2 preincubated for 15 mins by phenol red dye based stopped flow CO2 hydration assay
# [13] = target: Carbonic anhydrase 1 (Homo sapiens, UniProt P00915); experiment: Inhibition of human CA1 preincubated for 15 mins by phenol red dye based stopped flow CO2 hydration assay
# [14] = test system: UACC-62; experiment: Antiproliferative activity against human UACC-62 cells assessed as cell growth inhibition at 10 uM incubated for 24 hrs by sulforhodamine B assay; assay type: functional; details: read-out: GI
# [15] = test system: UO-31; experiment: Antiproliferative activity against human UO-31 cells assessed as cell growth inhibition at 10 uM incubated for 24 hrs by sulforhodamine B assay; assay type: functional; details: read-out: GI
# [16] = test system: HCT-15; experiment: Antiproliferative activity against human HCT-15 cells assessed as cell growth inhibition at 10 uM incubated for 24 hrs by sulforhodamine B assay; assay type: functional; details: read-out: GI
# [17] = test system: NCI-H460; experiment: Antiproliferative activity against human NCI-H460 cells assessed as cell growth inhibition at 10 uM incubated for 24 hrs by sulforhodamine B assay; assay type: functional; details: read-out: GI
# [18] = test system: ACHN; experiment: Antiproliferative activity against human ACHN cells assessed as cell growth inhibition at 10 uM incubated for 24 hrs by sulforhodamine B assay; assay type: functional; details: read-out: GI
# [19] = test system: NCI-H23; experiment: Antiproliferative activity against human NCI-H23 cells assessed as cell growth inhibition at 10 uM incubated for 24 hrs by sulforhodamine B assay; assay type: functional; details: read-out: GI
# [20] = test system: DU-145; experiment: Antiproliferative activity against human DU-145 cells assessed as cell growth inhibition at 10 uM incubated for 24 hrs by sulforhodamine B assay; assay type: functional; details: read-out: GI
# [21] = test system: SF-539; experiment: Antiproliferative activity against human SF-539 cells assessed as cell growth inhibition at 10 uM incubated for 24 hrs by sulforhodamine B assay; assay type: functional; details: read-out: GI
# [22] = test system: Malme-3M; experiment: Antiproliferative activity against human Malme-3M cells assessed as cell growth inhibition at 10 uM incubated for 24 hrs by sulforhodamine B assay; assay type: functional; details: read-out: GI
# [23] = test system: HOP-92; experiment: Antiproliferative activity against human HOP-92 cells assessed as cell growth inhibition at 10 uM incubated for 24 hrs by sulforhodamine B assay; assay type: functional; details: read-out: GI
# [24] = test system: Hs-578T; experiment: Antiproliferative activity against human HS-578T cells assessed as cell growth inhibition at 10 uM incubated for 24 hrs by sulforhodamine B assay; assay type: functional; details: read-out: GI
# [25] = test system: MCF7; experiment: Antiproliferative activity against human MCF7 cells assessed as cell growth inhibition at 10 uM incubated for 24 hrs by sulforhodamine B assay; assay type: functional; details: read-out: GI
# [26] = test system: NCI-H226; experiment: Antiproliferative activity against human NCI-H226 cells assessed as cell growth inhibition at 10 uM incubated for 24 hrs by sulforhodamine B assay; assay type: functional; details: read-out: GI
# [27] = test system: RXF 393; experiment: Antiproliferative activity against human RXF 393 cells assessed as cell growth inhibition at 10 uM incubated for 24 hrs by sulforhodamine B assay; assay type: functional; details: read-out: GI
# [28] = test system: OVCAR-3; experiment: Antiproliferative activity against human OVCAR-3 cells assessed as cell growth inhibition at 10 uM incubated for 24 hrs by sulforhodamine B assay; assay type: functional; details: read-out: GI
# [29] = test system: EKVX; experiment: Antiproliferative activity against human EKVX cells assessed as cell growth inhibition at 10 uM incubated for 24 hrs by sulforhodamine B assay; assay type: functional; details: read-out: GI
# [30] = test system: KM12; experiment: Antiproliferative activity against human KM12 cells assessed as cell growth inhibition at 10 uM incubated for 24 hrs by sulforhodamine B assay; assay type: functional; details: read-out: GI
# [31] = test system: PC-3; experiment: Antiproliferative activity against human PC-3 cells assessed as cell growth inhibition at 10 uM incubated for 24 hrs by sulforhodamine B assay; assay type: functional; details: read-out: GI
# [32] = test system: T47D; experiment: Antiproliferative activity against human T47D cells assessed as cell growth inhibition at 10 uM incubated for 24 hrs by sulforhodamine B assay; assay type: functional; details: read-out: GI
# [33] = test system: MDA-MB-468; experiment: Antiproliferative activity against human MDA-MB-468 cells assessed as cell growth inhibition at 10 uM incubated for 24 hrs by sulforhodamine B assay; assay type: functional; details: read-out: GI
# [34] = test system: OVCAR-4; experiment: Antiproliferative activity against human OVCAR-4 cells assessed as cell growth inhibition at 10 uM incubated for 24 hrs by sulforhodamine B assay; assay type: functional; details: read-out: GI
# [35] = test system: RPMI-8226; experiment: Antiproliferative activity against human RPMI-8226 cells assessed as cell growth inhibition at 10 uM incubated for 24 hrs by sulforhodamine B assay; assay type: functional; details: read-out: GI
# [36] = test system: 786-0; experiment: Antiproliferative activity against human 786-0 cells assessed as cell growth inhibition at 10 uM incubated for 24 hrs by sulforhodamine B assay; assay type: functional; details: read-out: GI
# [37] = test system: SF-268; experiment: Antiproliferative activity against human SF-268 cells assessed as cell growth inhibition at 10 uM incubated for 24 hrs by sulforhodamine B assay; assay type: functional; details: read-out: GI
# [38] = test system: MDA-MB-231; experiment: Antiproliferative activity against human MDA-MB-231 cells assessed as cell growth inhibition at 10 uM incubated for 24 hrs by sulforhodamine B assay; assay type: functional; details: read-out: GI
# [39] = test system: U-251; experiment: Antiproliferative activity against human U-251 cells assessed as cell growth inhibition at 10 uM incubated for 24 hrs by sulforhodamine B assay; assay type: functional; details: read-out: GI
# [40] = test system: OVCAR-8; experiment: Antiproliferative activity against human OVCAR-8 cells assessed as cell growth inhibition at 10 uM incubated for 24 hrs by sulforhodamine B assay; assay type: functional; details: read-out: GI
# [41] = test system: SF-295; experiment: Antiproliferative activity against human SF-295 cells assessed as cell growth inhibition at 10 uM incubated for 24 hrs by sulforhodamine B assay; assay type: functional; details: read-out: GI
# [42] = test system: HCT-116; experiment: Antiproliferative activity against human HCT-116 cells assessed as cell growth inhibition at 10 uM incubated for 24 hrs by sulforhodamine B assay; assay type: functional; details: read-out: GI
# [43] = test system: SN12C; experiment: Antiproliferative activity against human SN12C cells assessed as cell growth inhibition at 10 uM incubated for 24 hrs by sulforhodamine B assay; assay type: functional; details: read-out: GI
# [44] = test system: A549; experiment: Antiproliferative activity against human A549 cells assessed as cell growth inhibition at 10 uM incubated for 24 hrs by sulforhodamine B assay; assay type: functional; details: read-out: GI
# [45] = test system: NCI/ADR-RES; experiment: Antiproliferative activity against human NCI-ADR-RES cells assessed as cell growth inhibition at 10 uM incubated for 24 hrs by sulforhodamine B assay; assay type: functional; details: read-out: GI
# [46] = test system: SK-MEL-5; experiment: Antiproliferative activity against human SK-MEL-5 cells assessed as cell growth inhibition at 10 uM incubated for 24 hrs by sulforhodamine B assay; assay type: functional; details: read-out: GI
# Chain of Carbonic anhydrase 1 (P00915 whole entry): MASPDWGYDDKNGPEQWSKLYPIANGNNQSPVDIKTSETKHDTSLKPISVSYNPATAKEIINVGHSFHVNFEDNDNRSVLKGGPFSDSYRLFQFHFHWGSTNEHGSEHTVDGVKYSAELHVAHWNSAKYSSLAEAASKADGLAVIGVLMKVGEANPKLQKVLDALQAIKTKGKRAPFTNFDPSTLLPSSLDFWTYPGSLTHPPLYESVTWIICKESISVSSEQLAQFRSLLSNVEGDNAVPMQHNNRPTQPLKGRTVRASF
SMILES,inhibition of growth at 10 µM [2] [%],inhibition of growth at 10 µM [3] [%],Ki [4] [nM],inhibition of growth at 10 µM [5] [%],inhibition of growth at 10 µM [6] [%],inhibition of growth at 10 µM [7] [%],inhibition of growth at 10 µM [8] [%],inhibition of growth at 10 µM [9] [%],inhibition of growth at 10 µM [10] [%],Ki [12] [µM],Ki [13] [µM],inhibition of growth at 10 µM [14] [%],inhibition of growth at 10 µM [15] [%],inhibition of growth at 10 µM [16] [%],inhibition of growth at 10 µM [18] [%],inhibition of growth at 10 µM [19] [%],inhibition of growth at 10 µM [21] [%],inhibition of growth at 10 µM [23] [%],inhibition of growth at 10 µM [25] [%],inhibition of growth at 10 µM [27] [%],also measured
COc1ccc(C(=O)CSc2nc(Nc3ccc(S(N)(=O)=O)cc3)cc(-c3ccccc3)n2)cc1,26.1,22.1,91.5,11,15,12.6,27,19.8,46.3,> 20,> 20,13.2,13,9.43,28,,,,,,inhibition of growth at 10 µM [1]: 10.4%; inhibition of growth at 10 µM [11]: 13.9%; inhibition of growth at 10 µM [17]: 26.9%
Cc1ccc(-c2nc(SCC(=O)c3ccc(Br)cc3)nc(Nc3ccc(S(N)(=O)=O)cc3)c2C#N)cc1,11.8,,8740,,< 5,13.7,11.4,,8,> 20,> 20,,22.4,11.3,,6.49,17.1,40.4,16.5,,inhibition of growth at 10 µM [20]: 47.5%; inhibition of growth at 10 µM [22]: 8.67%; inhibition of growth at 10 µM [24]: 14.3%
CC(C)c1nc(SCC(=O)c2ccc(Br)cc2)nc(Nc2cccc(S(N)(=O)=O)c2)c1C#N,,,97.4,,,12.7,,,,,,8.44,20.9,,,5.54,5.74,15,12.4,8.85,inhibition of growth at 10 µM [26]: 6.88%; inhibition of growth at 10 µM [28]: 6.91%
COc1ccc(C(=O)CSc2nc(Nc3cccc(S(N)(=O)=O)c3)c(C#N)c(-c3cc(OC)ccc3OC)n2)cc1,11.3,18.2,7,,,29.2,12.7,23.9,10.7,,,,29.2,10.6,5.69,,11.2,,11.8,11.7,inhibition of growth at 10 µM [29]: 6.35%; inhibition of growth at 10 µM [30]: 5.79%; inhibition of growth at 10 µM [31]: 8.57%; inhibition of growth at 10 µM [32]: 15.2%; inhibition of growth at 10 µM [33]: 8.93%; inhibition of growth at 10 µM [34]: 7.16%; inhibition of growth at 10 µM [35]: 12.6%; inhibition of growth at 10 µM [36]: 7.02%; inhibition of growth at 10 µM [37]: 5.3%; inhibition of growth at 10 µM [24]: 10.4%; inhibition of growth at 10 µM [38]: 5.72%; inhibition of growth at 10 µM [39]: 9.1%
CC(C)c1nc(SCC(=O)c2ccccc2)nc(Nc2cccc(S(N)(=O)=O)c2)c1C#N,,28.2,92.3,13.8,25.2,10.8,19,10.7,26.7,,,,27.4,12.1,,,12.2,61,12.6,17.3,inhibition of growth at 10 µM [40]: 5%; inhibition of growth at 10 µM [29]: 5.72%; inhibition of growth at 10 µM [26]: 10%; inhibition of growth at 10 µM [31]: 27.3%; inhibition of growth at 10 µM [41]: 5.43%; inhibition of growth at 10 µM [32]: 17.9%; inhibition of growth at 10 µM [34]: 9.85%; inhibition of growth at 10 µM [42]: 5.73%; inhibition of growth at 10 µM [43]: 8.21%; inhibition of growth at 10 µM [44]: 5.5%; inhibition of growth at 10 µM [45]: 5.69%; inhibition of growth at 10 µM [35]: 17.9%; inhibition of growth at 10 µM [46]: 7.01%; inhibition of growth at 10 µM [38]: 14.9%; inhibition of growth at 10 µM [39]: 5.45%
